Assay results published in PubChem BioAssay (NCI).
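Five concentrations, 48 hours, 96-well plates. At the GI50, growth is halved. TGI: concentration producing complete growth inhibition.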

Columns and labels:
Assay in all cases: NCI-60 cell line screen, 48 h
[1] = tested on: 786-0 renal
[2] = tested on: A549 NSCLC
[3] = tested on: ACHN renal
[4] = tested on: BT-549 breast
[5] = tested on: CAKI-1 renal
[6] = tested on: CCRF-CEM leukemia
[7] = tested on: COLO 205 colon
[8] = tested on: DU-145 prostate
[9] = tested on: EKVX NSCLC
[10] = tested on: HCT-116 colon
[11] = tested on: HCT-15 colon
[12] = tested on: HOP-62 NSCLC
[13] = tested on: HOP-92 NSCLC
[14] = tested on: HS 578T breast
[15] = tested on: HT29 colon
[16] = tested on: IGROV1 ovarian
[17] = tested on: K-562 leukemia
[18] = tested on: KM12 colon
[19] = tested on: LOX IMVI melanoma
[20] = tested on: M14 melanoma
[21] = tested on: MALME-3M melanoma
[22] = tested on: MCF7 breast
[23] = tested on: MDA-MB-231 breast
[24] = tested on: MDA-MB-435
[25] = tested on: MOLT-4 leukemia
[26] = tested on: NCI-H226 lung
[27] = tested on: NCI-H23 lung
[28] = tested on: NCI-H460 lung
[29] = tested on: NCI-H522 lung
[30] = tested on: NCI/ADR-RES ovarian
[31] = tested on: OVCAR-3 ovarian
[32] = tested on: OVCAR-4 ovarian
[33] = tested on: OVCAR-5 ovarian
[34] = tested on: OVCAR-8 ovarian
[35] = tested on: PC-3 prostate
[36] = tested on: RPMI-8226 leukemia
[37] = tested on: RXF 393 renal
[38] = tested on: SF-268 CNS
[39] = tested on: SF-295 CNS
[40] = tested on: SF-539 CNS
[41] = tested on: SK-MEL-2 melanoma
[42] = tested on: SK-MEL-28 melanoma
[43] = tested on: SK-MEL-5 melanoma
[44] = tested on: SK-OV-3 ovarian
[45] = tested on: SN12C renal
[46] = tested on: SNB-19 CNS
[47] = tested on: SNB-75 CNS
[48] = tested on: SR leukemia
[49] = tested on: SW-620 colon
[50] = tested on: T-47D breast
[51] = tested on: TK-10 renal
[52] = tested on: U251 CNS
[53] = tested on: UACC-257 melanoma
[54] = tested on: UACC-62 melanoma
[55] = tested on: UO-31 renal
[56] = tested on: A498 renal
[57] = tested on: HCC-2998 colon
[58] = tested on: HL-60(TB) leukemia

`C=C1C[C@H](O)[C@H]2C(C[Se]c3ccccc3)C(=O)O[C@@H]2[C@H]2[C@H](C)C(O)C[C@@H]12` (some centres undefined) was tested, and the TGI [1] was 99.3 µM, the TGI [2] was > 100 µM and the TGI [3] was 76.3 µM. The TGI [4] was 98.4 µM, the TGI [5] was > 100 µM and the TGI [6] was > 100 µM. The TGI [7] was > 100 µM, the TGI [8] was > 100 µM and the TGI [9] was > 100 µM. The TGI [10] was 56.4 µM, the TGI [11] was 33.9 µM and the TGI [12] was > 100 µM. For the same compound, the TGI [13] was > 100 µM, the TGI [14] was > 100 µM and the TGI [15] was > 100 µM. The TGI [16] was 93.1 µM, the TGI [17] was > 100 µM and the TGI [18] was > 100 µM. The TGI [19] was 51.4 µM, the TGI [20] was > 100 µM and the TGI [21] was > 100 µM. For the same compound, the TGI [22] was > 100 µM, the TGI [23] was 38.1 µM and the TGI [24] was > 100 µM. For the same compound, the TGI [25] was > 100 µM, the TGI [26] was 83.9 µM and the TGI [27] was 40.7 µM. For the same compound, the TGI [28] was > 100 µM, the TGI [29] was 38.1 µM and the TGI [30] was 51.6 µM. For the same compound, the TGI [31] was 98.6 µM, the TGI [32] was > 100 µM and the TGI [33] was 55 µM. The TGI [34] was > 100 µM, the TGI [35] was > 100 µM and the TGI [36] was 98 µM. The TGI [37] was 50.2 µM, the TGI [38] was > 100 µM and the TGI [39] was > 100 µM. The TGI [40] was > 100 µM, the TGI [41] was > 100 µM and the TGI [42] was > 100 µM. For the same compound, the TGI [43] was > 100 µM, the TGI [44] was > 100 µM and the TGI [45] was 65 µM. For the same compound, the TGI [46] was > 100 µM, the TGI [47] was > 100 µM and the TGI [48] was > 100 µM. The TGI [49] was 94.8 µM, the TGI [50] was > 100 µM and the TGI [51] was > 100 µM. For the same compound, the TGI [52] was 30.8 µM, the TGI [53] was > 100 µM and the TGI [54] was 64.1 µM. The TGI [55] was 63.7 µM.

`CO/N=C(\COc1ccc2c(=O)cc(-c3ccccc3)oc2c1)c1ccc(F)cc1` was tested, and the GI50 [1] was 20.7 µM, the TGI [1] was 49.8 µM and the GI50 [56] was > 100 µM. For the same compound, the TGI [56] was > 100 µM, the GI50 [2] was 30.6 µM and the TGI [2] was > 100 µM. The GI50 [3] was 34 µM, the TGI [3] was > 100 µM and the GI50 [4] was > 100 µM. For the same compound, the TGI [4] was > 100 µM, the GI50 [5] was 22.7 µM and the TGI [5] was 65.6 µM. The GI50 [6] was > 100 µM, the TGI [6] was > 100 µM and the GI50 [7] was > 100 µM. For the same compound, the TGI [7] was > 100 µM, the GI50 [8] was 76.1 µM and the TGI [8] was > 100 µM. For the same compound, the GI50 [9] was 74.4 µM, the TGI [9] was > 100 µM and the GI50 [57] was 32.3 µM. The TGI [57] was 96 µM, the GI50 [10] was 28.4 µM and the TGI [10] was > 100 µM. For the same compound, the GI50 [11] was 63.9 µM, the TGI [11] was > 100 µM and the GI50 [58] was 21 µM. The TGI [58] was > 100 µM, the GI50 [12] was 21 µM and the TGI [12] was 50.5 µM. For the same compound, the GI50 [14] was 51.5 µM, the TGI [14] was > 100 µM and the GI50 [15] was 33.6 µM. The TGI [15] was > 100 µM, the GI50 [16] was 21.9 µM and the TGI [16] was 66.6 µM. For the same compound, the GI50 [17] was 36.5 µM, the TGI [17] was > 100 µM and the GI50 [18] was 53.8 µM. The TGI [18] was > 100 µM, the GI50 [19] was 67.5 µM and the TGI [19] was > 100 µM. The GI50 [20] was 36.1 µM, the TGI [20] was > 100 µM and the GI50 [21] was 19.3 µM. It also gave a TGI [21] of 45.9 µM, a GI50 [23] of 27.7 µM and a TGI [23] of 64 µM. The GI50 [24] was 10.3 µM, the TGI [24] was 37.1 µM and the GI50 [26] was > 100 µM. The TGI [26] was > 100 µM, the GI50 [27] was 92.7 µM and the TGI [27] was > 100 µM. It also gave a GI50 [29] of 23.1 µM, a TGI [29] of 62.3 µM and a GI50 [30] of 34.4 µM. The TGI [30] was > 100 µM, the GI50 [31] was 14 µM and the TGI [31] was 47.7 µM. The GI50 [32] was 58.2 µM, the TGI [32] was > 100 µM and the GI50 [33] was 42.1 µM. For the same compound, the TGI [33] was > 100 µM, the GI50 [34] was 40.7 µM and the TGI [34] was > 100 µM. For the same compound, the GI50 [35] was 37.9 µM, the TGI [35] was > 100 µM and the GI50 [36] was > 100 µM. For the same compound, the TGI [36] was > 100 µM, the GI50 [37] was 27.7 µM and the TGI [37] was 87.5 µM. For the same compound, the GI50 [39] was 25.8 µM, the TGI [39] was 56.9 µM and the GI50 [40] was 94.8 µM. For the same compound, the TGI [40] was > 100 µM, the GI50 [41] was 24 µM and the TGI [41] was 60.4 µM. For the same compound, the GI50 [42] was 89.4 µM, the TGI [42] was > 100 µM and the GI50 [43] was 35.1 µM. The TGI [43] was > 100 µM, the GI50 [44] was 41.4 µM and the TGI [44] was > 100 µM. For the same compound, the GI50 [45] was 36.2 µM, the TGI [45] was > 100 µM and the GI50 [47] was 24.1 µM. For the same compound, the TGI [47] was 55 µM, the GI50 [48] was 14.5 µM and the TGI [48] was 47.2 µM. The GI50 [49] was 42.6 µM, the TGI [49] was > 100 µM and the GI50 [50] was 68.4 µM. The TGI [50] was > 100 µM, the GI50 [51] was 41.7 µM and the TGI [51] was > 100 µM. The GI50 [52] was 29.2 µM, the TGI [52] was 88.5 µM and the GI50 [53] was 32.1 µM. The TGI [53] was > 100 µM, the GI50 [54] was 29.8 µM and the TGI [54] was > 100 µM. The GI50 [55] was > 100 µM and the TGI [55] was > 100 µM.
